The text below walks through data of patent US10877035B2, “Advanced drug development and manufacturing” (ICAGEN, LLC, priority 2006, dated 2020).

For experiment [1], the target named is T1, COX-1 (Canis lupus familiaris, UniProt Q8HZR1).
T1 sequence (Q8HZR1 28-603): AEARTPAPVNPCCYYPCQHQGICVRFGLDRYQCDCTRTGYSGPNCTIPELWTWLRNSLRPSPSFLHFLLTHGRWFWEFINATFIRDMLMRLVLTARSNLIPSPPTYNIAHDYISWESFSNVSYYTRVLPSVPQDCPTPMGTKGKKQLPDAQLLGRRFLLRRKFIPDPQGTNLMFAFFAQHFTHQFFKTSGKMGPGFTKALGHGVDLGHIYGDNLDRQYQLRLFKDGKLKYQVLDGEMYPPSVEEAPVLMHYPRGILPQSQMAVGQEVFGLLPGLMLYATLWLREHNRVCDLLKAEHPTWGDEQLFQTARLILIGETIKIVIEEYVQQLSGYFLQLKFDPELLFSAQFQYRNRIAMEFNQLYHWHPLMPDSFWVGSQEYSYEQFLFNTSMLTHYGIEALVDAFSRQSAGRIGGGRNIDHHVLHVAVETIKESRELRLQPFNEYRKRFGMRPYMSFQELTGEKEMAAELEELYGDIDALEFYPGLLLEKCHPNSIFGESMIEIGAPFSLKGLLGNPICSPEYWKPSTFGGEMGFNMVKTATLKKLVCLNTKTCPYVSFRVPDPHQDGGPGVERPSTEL
The note with it: cited from earlier work.

The target in experiment [2] is T2, COX-2 (Canis lupus familiaris, UniProt Q8SPQ9).
T2 sequence (Q8SPQ9 18-604): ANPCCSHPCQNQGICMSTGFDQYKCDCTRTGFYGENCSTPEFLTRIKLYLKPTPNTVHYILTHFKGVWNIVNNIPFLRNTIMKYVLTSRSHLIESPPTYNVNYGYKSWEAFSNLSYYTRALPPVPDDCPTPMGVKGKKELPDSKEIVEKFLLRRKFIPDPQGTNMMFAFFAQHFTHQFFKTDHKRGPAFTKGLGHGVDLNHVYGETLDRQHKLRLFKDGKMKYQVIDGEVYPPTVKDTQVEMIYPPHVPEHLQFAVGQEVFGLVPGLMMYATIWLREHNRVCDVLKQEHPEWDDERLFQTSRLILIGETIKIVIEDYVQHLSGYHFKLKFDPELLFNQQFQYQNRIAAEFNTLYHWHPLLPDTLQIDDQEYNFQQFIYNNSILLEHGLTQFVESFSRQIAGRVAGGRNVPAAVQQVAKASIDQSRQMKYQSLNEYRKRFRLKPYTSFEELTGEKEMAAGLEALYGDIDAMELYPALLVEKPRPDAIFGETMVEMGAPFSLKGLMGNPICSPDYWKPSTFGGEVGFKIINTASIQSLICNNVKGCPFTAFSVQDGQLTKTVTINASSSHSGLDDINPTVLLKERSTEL
The note with it: canine, relative to COX-1 column; cited from earlier work.

Experiment [3] deals with T3, tetrameric avidin (Gallus gallus, UniProt P02701).
T3 construct: purchased Sigma-Aldrich
T3 sequence (P02701 25-152): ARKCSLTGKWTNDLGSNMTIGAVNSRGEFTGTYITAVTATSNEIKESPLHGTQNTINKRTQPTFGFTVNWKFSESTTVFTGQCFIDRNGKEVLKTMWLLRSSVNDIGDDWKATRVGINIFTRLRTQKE
As to the kind of experiment: RPM (x-ray fluorescence) measurement of sulfur in avidin-biotin complex versus avidin. It is filed as binding. The settings on record: 500 micrograms avidin, 0.20 millimolar biotin, pH 8.0, after ultrafiltration. An excerpt: Previous studies have shown that the ratio of sulfur in avidin-biotin:avidin is 19.5:16, or 1.22, see Green N. Mex. Purification of Avidin. Meth Enzymol. 1970, XVIII(A):414-417. […] We treated an avidin control sample identically. We used RPM to measure the sulfur content of the avidin-biotin complex and the avidin. We confirmed that the amount of avidin in each sample was identical using bicinchoninic acid protein assay kit (Pierce). As predicted, the avidin-biotin complex contained 1.2 times the sulfur than the avidin alone as measured by RPM.

The target in experiment [4] is T3, tetrameric avidin. The settings on record: previous studies; cited from earlier work.
Experiment [5] has as its target avidin (Gallus gallus, UniProt P02701). The settings on record: 200 micrograms avidin and 0.20 millimolar LPA, same filtering. The protocol:
[…] We diluted this sample to 0.75 ml in TRIS buffer (pH 8.0), centrifuged for 2 hours at 7000 g, and repeated this process twice.

Chain of avidin (P02701 25-152): as above

In the case of `CC(C(=O)O)c1cccc(C(=O)c2ccccc2)c1` (stereo not drawn) [Ketoprofen], the “selectivity in favor of COX-1 versus COX-2” value in experiment [1] (according to TABLE 3) is recorded as 1 to 0.6. In experiment [1] (canine, relative to COX-2 column), the “selectivity data, COX-1” value is reported as 1. Moreover, in experiment [2], the “selectivity data, COX-2” value was “.6”.
Consider `O=C(O)CCCC[C@@H]1SC[C@@H]2NC(=O)N[C@@H]21` [biotin], for which the “sulfur in avidin-biotin complex relative to avidin alone as measured by RPM” value in experiment [3] was 1.2 times. For the same compound, the “ratio of sulfur in avidin-biotin:avidin” value in experiment [4] is reported as 1.22.
As for leucine phosphonic acid [LPA], the “phosphorus observed in control samples” value in experiment [5] is recorded as “no phosphorus was observed”.
